Data as given in paper PMC7718943, “In silico molecular target prediction unveils mebendazole as a potent MAPK14 inhibitor” (Molecular Oncology, 2020).
Read-outs that look alike come from different tables or passages of the source.

Legend:
MAPK14 (MAPK14/p38α) = target: T1, MAPK14 (MAPK14/p38α) (Homo sapiens, UniProt Q16539); experiment: ADP-Glo kinase assay; type: biochemical; settings: read-out: IC50 value (μM) ± SD / MAPK14
T1 construct: commercial enzyme of Promega kinase assay

ERK2 (MAPK1) = target: T2, ERK2 (MAPK1) (Homo sapiens, UniProt P28482); experiment: ADP-Glo kinase assay; type: biochemical; settings: read-out: IC50 value (μM) ± SD / ERK2
T2 construct: commercial enzyme of Promega kinase assay
T2 sequence (P28482 2-360): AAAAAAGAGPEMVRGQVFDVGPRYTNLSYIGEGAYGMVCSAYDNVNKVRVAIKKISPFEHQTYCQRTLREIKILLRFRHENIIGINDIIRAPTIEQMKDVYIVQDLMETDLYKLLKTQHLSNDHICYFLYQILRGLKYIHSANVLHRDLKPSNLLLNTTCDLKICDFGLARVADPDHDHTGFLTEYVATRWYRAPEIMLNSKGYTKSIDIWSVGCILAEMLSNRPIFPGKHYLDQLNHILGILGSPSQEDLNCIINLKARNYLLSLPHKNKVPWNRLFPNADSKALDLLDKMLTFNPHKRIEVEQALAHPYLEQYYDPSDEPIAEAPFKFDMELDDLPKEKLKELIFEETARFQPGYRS
Description: ADP-Glo kinase assay on ERK2 (MAPK1)

ABL1 = target: T3, ABL1 (Homo sapiens, UniProt P00519); experiment: ADP-Glo kinase assay; type: biochemical
T3 construct: commercial enzyme of Promega kinase assay
T3 sequence (P00519 whole entry): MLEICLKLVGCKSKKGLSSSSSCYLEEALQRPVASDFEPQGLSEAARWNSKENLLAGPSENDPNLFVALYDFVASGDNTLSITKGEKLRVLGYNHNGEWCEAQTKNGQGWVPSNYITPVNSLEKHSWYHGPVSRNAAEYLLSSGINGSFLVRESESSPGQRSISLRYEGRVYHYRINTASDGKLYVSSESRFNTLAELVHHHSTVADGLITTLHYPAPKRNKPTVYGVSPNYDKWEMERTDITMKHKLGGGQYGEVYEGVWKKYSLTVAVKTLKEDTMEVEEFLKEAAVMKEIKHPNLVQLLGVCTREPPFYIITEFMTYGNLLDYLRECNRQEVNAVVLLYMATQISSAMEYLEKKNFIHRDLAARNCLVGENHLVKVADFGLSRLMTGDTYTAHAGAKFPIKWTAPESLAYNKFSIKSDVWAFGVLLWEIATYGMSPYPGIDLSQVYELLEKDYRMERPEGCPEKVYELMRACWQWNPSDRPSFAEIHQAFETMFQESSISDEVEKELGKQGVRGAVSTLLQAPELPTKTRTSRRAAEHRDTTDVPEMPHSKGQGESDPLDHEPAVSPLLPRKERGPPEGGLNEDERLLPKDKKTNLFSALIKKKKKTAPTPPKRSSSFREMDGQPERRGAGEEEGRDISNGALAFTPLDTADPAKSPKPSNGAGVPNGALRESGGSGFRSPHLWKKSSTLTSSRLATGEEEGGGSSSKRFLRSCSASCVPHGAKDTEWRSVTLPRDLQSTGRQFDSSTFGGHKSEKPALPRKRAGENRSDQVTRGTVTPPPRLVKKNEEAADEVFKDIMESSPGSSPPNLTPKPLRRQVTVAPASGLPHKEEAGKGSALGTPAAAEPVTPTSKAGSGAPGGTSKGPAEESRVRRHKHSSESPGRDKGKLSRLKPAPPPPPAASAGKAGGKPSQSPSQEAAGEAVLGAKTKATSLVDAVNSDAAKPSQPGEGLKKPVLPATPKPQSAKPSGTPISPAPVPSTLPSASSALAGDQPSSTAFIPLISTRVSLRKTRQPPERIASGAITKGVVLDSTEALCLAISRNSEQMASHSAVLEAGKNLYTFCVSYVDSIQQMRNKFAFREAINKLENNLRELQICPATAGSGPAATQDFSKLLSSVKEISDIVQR

[1] = target: T4, MAPK14 (wild-type, His-tagged, pET28a) (Homo sapiens, UniProt Q16539); experiment: isothermal titration calorimetry; type: binding
T4 construct: wild type, pET28a vector, His tag conserved for ITC and TSA
T4 sequence (Q16539 whole entry): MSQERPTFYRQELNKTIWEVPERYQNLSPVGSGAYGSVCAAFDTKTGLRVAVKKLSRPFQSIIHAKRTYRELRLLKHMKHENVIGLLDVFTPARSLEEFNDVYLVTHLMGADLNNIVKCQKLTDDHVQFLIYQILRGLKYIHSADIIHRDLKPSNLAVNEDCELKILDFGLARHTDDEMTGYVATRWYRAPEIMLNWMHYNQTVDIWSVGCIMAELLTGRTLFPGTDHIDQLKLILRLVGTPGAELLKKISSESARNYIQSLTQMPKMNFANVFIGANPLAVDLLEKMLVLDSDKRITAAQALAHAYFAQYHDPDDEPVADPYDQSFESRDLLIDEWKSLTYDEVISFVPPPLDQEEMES

[2] = target: T4, MAPK14 (wild-type, His-tagged, pET28a); experiment: fluorescence thermal shift assay; type: binding; settings: read-out: dTm
[3] = read-out: IC50 value (μM) ± SD / ABL1

T1 sequence (Q16539 2-360): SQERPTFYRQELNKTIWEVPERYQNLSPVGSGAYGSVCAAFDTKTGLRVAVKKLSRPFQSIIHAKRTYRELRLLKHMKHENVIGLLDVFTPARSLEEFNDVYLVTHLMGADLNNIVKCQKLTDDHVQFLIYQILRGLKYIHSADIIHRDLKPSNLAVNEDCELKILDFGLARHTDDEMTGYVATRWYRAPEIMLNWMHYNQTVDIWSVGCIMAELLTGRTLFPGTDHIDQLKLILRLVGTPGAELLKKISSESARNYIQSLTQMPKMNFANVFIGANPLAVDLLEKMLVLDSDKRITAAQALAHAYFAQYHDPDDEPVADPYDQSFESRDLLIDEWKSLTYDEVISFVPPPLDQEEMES

| SMILES | IC50 (MAPK14 (MAPK14/p38α)) [µM] | IC50 (ERK2 (MAPK1)) [µM] | IC50 (ABL1; read-out: IC50) [µM] | Kd [1] [µM] | IC50 (ABL1; [3]) [µM] | ΔTm at 50 µM [2] [°C] |
| --- | --- | --- | --- | --- | --- | --- |
| COC(=O)Nc1nc2ccc(C(=O)c3cccs3)cc2[nH]1 [Nocodazole] | 2.8 ± 5.6 | 26.9 ± 16.2 | 0.078 ± 0.034 | – | – | – |
| COC(=O)Nc1nc2ccc(C(=O)c3ccccc3)cc2[nH]1 [Mebendazole] | – | 24.7 ± 10.4 | – | 1.27 ± 0.02 | 0.35 ± 0.12 | 3.7 |
| CCCSc1ccc2nc(NC(=O)OC)[nH]c2c1 [Albendazole] | > 50 | 3.4 ± 1.5 | – | – | 0.9 ± 0.6 | – |
| COC(=O)Nc1nc2cc(C(=O)c3ccc(F)cc3)ccc2[nH]1 [Flubendazole] | 5.5 ± 2.7 | 15.9 ± 8 | – | – | 0.11 ± 0.05 | – |
| COC(=O)Nc1nc2ccc(Sc3ccccc3)cc2[nH]1 [Fenbendazole] | 10.7 ± 4.9 | > 50 | – | – | 0.19 ± 0.07 | – |
